Experimental findings from patent publication US12011444B2, “N-substituted indole derivatives as PGE2 receptor modulators” (Idorsia Pharmaceuticals Ltd, priority 2015, dated 2024) are described below.

The target in one assay is PTRGER4 (EP4) (Homo sapiens (Human), UniProt P35408). Briefly: hEP4 b-arrestin assay (PathHunter HEK 293 PTGER4 b-arrestin cells). The class given is cell-based. As to conditions: hEP4 b-arrestin assay (values without asterisk). The method in brief: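 Stably transfected HEK293 cells carrying EP4–ProLink and β-arrestin 2–EA (β-gal fragment complementation), pre-incubated with compound 15 min at 37 °C, then stimulated with PGE2 (20 nM final) for 120 min at 37 °C. Chemiluminescence read after 1 h detection reagent at room temperature; activity per concentration expressed as percent of DMSO control.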

The next assay addresses PTGER2 (EP2) (Homo sapiens (Human), UniProt P43116). Briefly: hEP2 b-arrestin assay (PathHunter HEK 293 PTGER2 b-arrestin cells). The class given is cell-based. Conditions: hEP2 b-arrestin assay (values without asterisk). The method in brief: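 HEK293 cells expressing ProLink-tagged EP2 and EA-fused β-arrestin 2 (enzyme fragment complementation) were seeded 24 h, pre-incubated with compound 15 min at 37 °C, then stimulated with 5 μM PGE2 (final) for 120 min.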

pIC50: −log10 of the molar value.

Sequence of PTGER2 (EP2) (P43116 whole entry, the tested form may be a part): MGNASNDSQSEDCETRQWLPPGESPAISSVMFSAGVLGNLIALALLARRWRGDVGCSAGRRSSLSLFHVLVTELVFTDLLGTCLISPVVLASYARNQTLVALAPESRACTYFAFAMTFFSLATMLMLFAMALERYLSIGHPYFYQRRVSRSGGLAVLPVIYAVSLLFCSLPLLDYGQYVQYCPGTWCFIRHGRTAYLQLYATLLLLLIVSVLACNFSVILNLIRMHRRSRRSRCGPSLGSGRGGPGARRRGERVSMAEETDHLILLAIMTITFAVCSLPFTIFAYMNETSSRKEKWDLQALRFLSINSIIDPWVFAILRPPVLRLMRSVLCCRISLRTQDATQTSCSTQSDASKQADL
Sequence of PTRGER4 (EP4) (P35408 whole entry, looked up, the tested form may be a part): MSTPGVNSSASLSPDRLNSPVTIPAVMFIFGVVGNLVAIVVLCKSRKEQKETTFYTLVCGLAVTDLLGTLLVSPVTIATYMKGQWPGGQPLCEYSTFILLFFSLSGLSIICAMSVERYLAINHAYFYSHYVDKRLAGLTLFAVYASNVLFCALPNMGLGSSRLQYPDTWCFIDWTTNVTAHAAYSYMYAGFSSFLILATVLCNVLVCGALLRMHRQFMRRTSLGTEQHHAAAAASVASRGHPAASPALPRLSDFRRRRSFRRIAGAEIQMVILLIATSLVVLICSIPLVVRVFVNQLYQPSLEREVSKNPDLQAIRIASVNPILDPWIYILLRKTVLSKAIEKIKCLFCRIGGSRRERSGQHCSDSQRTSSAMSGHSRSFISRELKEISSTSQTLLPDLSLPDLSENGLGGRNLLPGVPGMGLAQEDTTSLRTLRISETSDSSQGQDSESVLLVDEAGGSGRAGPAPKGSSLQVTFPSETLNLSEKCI

The term pIC50 denotes the negative decadic logarithm of the IC50, by convention in mol/L. A low value points to a high IC50. For `COc1ccc(F)c2c1cc(C#N)n2CCNc1cc(-c2ccc(B(O)O)cc2)ncn1` [Example 989, (4-(6-((2-(2-Cyano-7-fluoro-4-methoxy-1H-indol-1-yl)ethyl)amino)pyrimidin-4-yl)phenyl)boronic acid], the pIC50 at PTRGER4 (EP4) is 7.21; against PTGER2 (EP2), 7.17.

In the case of `COc1ccc(F)c2c1cc(C#N)n2CCNc1cc(-c2ccc3c(c2)CCNC3=O)ncn1` [Example 990, 7-Fluoro-4-methoxy-1-{2-[6-(1-oxo-1,2,3,4-tetrahydro-isoquinolin-6-yl)-pyrimidin-4-ylamino]-ethyl}-1H-indole-2-carbonitrile], the negative-log IC50 (pIC50) against PTRGER4 (EP4) is 7.72; against PTGER2 (EP2), 8.52.

`COc1ncc(-c2cc(NCCn3c(C#N)cc4c(OC)ccc(F)c43)ncn2)cn1` [Example 991, 7-Fluoro-4-methoxy-1-[2-(2′-methoxy-[4,5]bipyrimidinyl-6-ylamino)-ethyl]-1H-indole-2-carbonitrile]: the pIC50 against PTRGER4 (EP4) is 6.27; on PTGER2 (EP2), 6.85.

`CCOc1cc(-c2cc(NCCn3c(C#N)cc4c(OC)ccc(F)c43)ncn2)ccc1C=O` [Example 992, 1-{2-[6-(3-Ethoxy-4-formyl-phenyl)-pyrimidin-4-ylamino]-ethyl}-7-fluoro-4-methoxy-1H-indole-2-carbonitrile]: the pIC50 against PTRGER4 (EP4) is 7.46; against PTGER2 (EP2), 7.57.

Consider `COc1ccc(F)c2c1cc(C#N)n2CCNc1cc(-c2c(C)noc2C)ncn1` [Example 993, 1-{2-[6-(3,5-Dimethyl-isoxazol-4-yl)-pyrimidin-4-ylamino]-ethyl}-7-fluoro-4-methoxy-1H-indole-2-carbonitrile], for which the results for the pIC50 against PTRGER4 (EP4) and at PTGER2 (EP2) were 6.46 and 7.10, respectively.

In the case of `COc1ccc(F)c2c1cc(C#N)n2CCNc1cc(-c2ccc3[nH]ccc3c2)ncn1` [Example 994, 7-Fluoro-1-{2-[6-(1H-indol-5-yl)-pyrimidin-4-ylamino]-ethyl}-4-methoxy-1H-indole-2-carbonitrile], the pIC50 is 8.22 on PTRGER4 (EP4) and 8.15 at PTGER2 (EP2).

As for `COc1ccc(F)c2c1cc(C#N)n2CCNc1cc(-c2ccc3nccn3c2)ncn1` [Example 995, 7-Fluoro-1-[2-(6-imidazo[1,2-a]pyridin-6-yl-pyrimidin-4-ylamino)-ethyl]-4-methoxy-1H-indole-2-carbonitrile], the pIC50 at PTRGER4 (EP4) is 7.28; against PTGER2 (EP2) it was 7.89.

`COCCNC(=O)c1ccc(-c2cc(NCCn3c(C#N)cc4c(OC)ccc(F)c43)ncn2)cc1` [Example 996, 4-{6-[2-(2-Cyano-7-fluoro-4-methoxy-indol-1-yl)-ethylamino]-pyrimidin-4-yl}-N-(2-methoxy-ethyl)-benzamide]: the figures for the pIC50 on PTRGER4 (EP4) and against PTGER2 (EP2) were 7.00 and 7.41, respectively.

Turning to `COc1ccc(F)c2c1cc(C#N)n2CCNc1cc(-c2ccnc(N3CCCC3)c2)ncn1` [Example 997, 7-Fluoro-4-methoxy-1-{2-[6-(2-pyrrolidin-1-yl-pyridin-4-yl)-pyrimidin-4-ylamino]-ethyl}-1H-indole-2-carbonitrile], the pIC50 was 6.84 on PTRGER4 (EP4) and 7.24 on PTGER2 (EP2).

As to `COc1ccc(F)c2c1cc(C#N)n2CCNc1cc(-c2c(C)nn(C)c2C)ncn1` [Example 998, 7-Fluoro-4-methoxy-1-{2-[6-(1,3,5-trimethyl-1H-pyrazol-4-yl)-pyrimidin-4-ylamino]-ethyl}-1H-indole-2-carbonitrile], the pIC50 on PTRGER4 (EP4) was 6.16; on PTGER2 (EP2), 7.32.

In the case of `COC(=O)c1ccc(-c2cc(NCCn3c(C#N)cc4c(OC)ccc(F)c43)ncn2)cc1F` [Example 999, 4-{6-[2-(2-Cyano-7-fluoro-4-methoxy-indol-1-yl)-ethylamino]-pyrimidin-4-yl}-2-fluoro-benzoic acid methyl ester], the results for the pIC50 on PTRGER4 (EP4) and on PTGER2 (EP2) were 7.64 and 7.52, respectively.

Consider `COc1ccc(F)c2c1cc(C#N)n2CCNc1cc(-c2ccc3[nH]c(=O)[nH]c3c2)ncn1` [Example 1000, 7-Fluoro-4-methoxy-1-{2-[6-(2-oxo-2,3-dihydro-1H-benzoimidazol-5-yl)-pyrimidin-4-ylamino]-ethyl}-1H-indole-2-carbonitrile], for which the pIC50 was 7.10 on PTRGER4 (EP4) and 7.46 against PTGER2 (EP2).

For the compound `COc1ccc(F)c2c1cc(C#N)n2CCNc1cc(-c2ccc(O)c(C(F)(F)F)c2)ncn1` [Example 1001, 7-Fluoro-1-{2-[6-(4-hydroxy-3-trifluoromethyl-phenyl)-pyrimidin-4-ylamino]-ethyl}-4-methoxy-1H-indole-2-carbonitrile], the results for the pIC50 against PTRGER4 (EP4) and on PTGER2 (EP2) were 8.15 and 8.22, respectively.

As to `CCOc1cc(C(=O)O)cc(-c2cc(NCCn3c(C#N)cc4c(OC)ccc(F)c43)ncn2)c1` [Example 1002, 3-{6-[2-(2-Cyano-7-fluoro-4-methoxy-indol-1-yl)-ethylamino]-pyrimidin-4-yl}-5-ethoxy-benzoic acid], the values for the pIC50 on PTRGER4 (EP4) and on PTGER2 (EP2) were 7.51 and 7.70, respectively.

With `COc1ccc(F)c2c1cc(C#N)n2CCNc1cc(-c2ccnc(N3CCOCC3)c2)ncn1` [Example 1003, 7-Fluoro-4-methoxy-1-{2-[6-(2-morpholin-4-yl-pyridin-4-yl)-pyrimidin-4-ylamino]-ethyl}-1H-indole-2-carbonitrile], the pIC50 at PTRGER4 (EP4) is 6.88; against PTGER2 (EP2), 7.26.

Regarding `COc1ccc(F)c2c1cc(C#N)n2CCNc1cc(-c2cccc(CC(=O)O)c2)ncn1` [Example 1004, (3-{6-[2-(2-Cyano-7-fluoro-4-methoxy-indol-1-yl)-ethylamino]-pyrimidin-4-yl}-phenyl)-acetic acid], the pIC50 on PTRGER4 (EP4) is 6.84; against PTGER2 (EP2) it was 6.93.

On to `COc1cc(C(=O)O)cc(-c2cc(NCCn3c(C#N)cc4c(OC)ccc(F)c43)ncn2)c1` [Example 1005, 3-{6-[2-(2-Cyano-7-fluoro-4-methoxy-indol-1-yl)-ethylamino]-pyrimidin-4-yl}-5-methoxy-benzoic acid], for which the results for the pIC50 on PTRGER4 (EP4) and against PTGER2 (EP2) were 7.26 and 7.74, respectively.

Take `COc1ccc(F)c2c1cc(C#N)n2CCNc1cc(-c2ccnc(OC(F)F)c2)ncn1` [Example 1006, 1-{2-[6-(2-Difluoromethoxy-pyridin-4-yl)-pyrimidin-4-ylamino]-ethyl}-7-fluoro-4-methoxy-1H-indole-2-carbonitrile]: the figures for the pIC50 against PTRGER4 (EP4) and on PTGER2 (EP2) were 6.35 and 6.88, respectively.

`COc1ccc(F)c2c1cc(C#N)n2CCNc1cc(-c2ccnc(C(F)(F)F)c2)ncn1` [Example 1007, 7-Fluoro-4-methoxy-1-{2-[6-(2-trifluoromethyl-pyridin-4-yl)-pyrimidin-4-ylamino]-ethyl}-1H-indole-2-carbonitrile]: the figures for the pIC50 on PTRGER4 (EP4) and against PTGER2 (EP2) were 7.17 and 7.62, respectively.

With `COc1ccc(F)c2c1cc(C#N)n2CCNc1cc(-c2cc(C(=O)O)cs2)ncn1` [Example 1008, 5-{6-[2-(2-Cyano-7-fluoro-4-methoxy-indol-1-yl)-ethylamino]-pyrimidin-4-yl}-thiophene-3-carboxylic acid], the pIC50 is 6.29 at PTRGER4 (EP4) and 6.63 on PTGER2 (EP2).

On to `CCOC(=O)c1csc(-c2cc(NCCn3c(C#N)cc4c(OC)ccc(F)c43)ncn2)c1` [Example 1009, 5-{6-[2-(2-Cyano-7-fluoro-4-methoxy-indol-1-yl)-ethylamino]-pyrimidin-4-yl}-thiophene-3-carboxylic acid ethyl ester], for which the pIC50 against PTRGER4 (EP4) is 7.96; against PTGER2 (EP2), 7.70.
